Measured values: the NIST ThermoML archive (doi:10.1016/j.jct.2015.07.029)
± gives the expanded uncertainty stated by the source.

Assay: mn = molality of the nth substance listed, in mol/kg
Conditions: 101.3 kPa, Liquid, Alternating current cell with electrodes

For `O=C(O)c1ccc(O)c(O)c1` [3,4-dihydroxybenzoic acid] + O, the electrical conductivity (288.15 K, m1 = 0.001) was 0.0048 ± 0.0011 S/m, the electrical conductivity (288.15 K, m1 = 0.002) was 0.007 ± 0.0014 S/m and the electrical conductivity (288.15 K, m1 = 0.004) was 0.0102 ± 0.0021 S/m. It also gave an electrical conductivity (288.15 K, m1 = 0.006) of 0.0126 ± 0.0025 S/m, an electrical conductivity (288.15 K, m1 = 0.008) of 0.0146 ± 0.0029 S/m and an electrical conductivity (288.15 K, m1 = 0.01) of 0.0164 ± 0.0033 S/m. The electrical conductivity (291.15 K, m1 = 0.001) was 0.0051 ± 0.0011 S/m, the electrical conductivity (291.15 K, m1 = 0.002) was 0.0074 ± 0.0015 S/m and the electrical conductivity (291.15 K, m1 = 0.004) was 0.0107 ± 0.0022 S/m. The electrical conductivity (291.15 K, m1 = 0.006) was 0.0132 ± 0.0027 S/m, the electrical conductivity (291.15 K, m1 = 0.008) was 0.0154 ± 0.0031 S/m and the electrical conductivity (291.15 K, m1 = 0.01) was 0.0173 ± 0.0035 S/m. It also gave an electrical conductivity (294.15 K, m1 = 0.001) of 0.0054 ± 0.0012 S/m, an electrical conductivity (294.15 K, m1 = 0.002) of 0.0078 ± 0.0016 S/m and an electrical conductivity (294.15 K, m1 = 0.004) of 0.0113 ± 0.0023 S/m. It also gave an electrical conductivity (294.15 K, m1 = 0.006) of 0.014 ± 0.0028 S/m, an electrical conductivity (294.15 K, m1 = 0.008) of 0.0162 ± 0.0032 S/m and an electrical conductivity (294.15 K, m1 = 0.01) of 0.0182 ± 0.0036 S/m. It also gave an electrical conductivity (298.15 K, m1 = 0.001) of 0.0058 ± 0.0013 S/m, an electrical conductivity (298.15 K, m1 = 0.002) of 0.0084 ± 0.0017 S/m and an electrical conductivity (298.15 K, m1 = 0.004) of 0.0121 ± 0.0024 S/m. It also gave an electrical conductivity (298.15 K, m1 = 0.006) of 0.015 ± 0.003 S/m, an electrical conductivity (298.15 K, m1 = 0.008) of 0.0174 ± 0.0035 S/m and an electrical conductivity (298.15 K, m1 = 0.01) of 0.0196 ± 0.0039 S/m.
